SMILES strings stand for the structures.

The assay addresses T1, Tyrosine-protein phosphatase non-receptor type 1 (Homo sapiens, UniProt P18031).
T1 sequence (P18031 whole entry): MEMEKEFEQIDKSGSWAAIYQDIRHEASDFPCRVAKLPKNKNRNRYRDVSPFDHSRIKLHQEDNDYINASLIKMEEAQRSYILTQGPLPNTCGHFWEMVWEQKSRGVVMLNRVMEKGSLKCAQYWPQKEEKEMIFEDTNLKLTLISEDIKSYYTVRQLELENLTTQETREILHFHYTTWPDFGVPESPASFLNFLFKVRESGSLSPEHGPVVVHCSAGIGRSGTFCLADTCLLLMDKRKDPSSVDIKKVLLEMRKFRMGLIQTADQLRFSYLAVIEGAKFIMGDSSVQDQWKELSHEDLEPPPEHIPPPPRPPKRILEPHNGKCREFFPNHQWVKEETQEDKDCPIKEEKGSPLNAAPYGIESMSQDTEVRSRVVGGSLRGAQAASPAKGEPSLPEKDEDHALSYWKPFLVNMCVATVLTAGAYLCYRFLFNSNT
In words: Inhibition of PTP1B by pNPP hydrolase assay.
`O=C(O)c1cc(-c2ccc(/C=C3\NC(=O)N(c4ccccc4)C3=O)o2)ccc1Cl` returned a concentration for half-maximal inhibition (IC50) of 34 µM.
The value for `O=C(O)c1ccc(Nc2cc3ccccc3cc2NS(=O)(=O)c2ccc(F)cc2)cc1` was 41 µM; that for `N#C/C(=C\c1ccc(-c2ccccc2C(=O)O)o1)C(=O)Nc1ccc2ccccc2c1` was 27 µM.
The molecule `O=C(O)c1cccc(-c2ccc(-c3nc4sc5c(c4c(=O)[nH]3)CCCC5)o2)c1` displayed an IC50 of 25 µM.
Take `O=C1NC(=O)/C(=C\c2ccc(OCc3ccc(F)cc3)c(Br)c2)S1`: the concentration for half-maximal inhibition (IC50) came to 11 µM.
The value for `O=C1ON=C(c2ccccc2)/C1=C\c1ccccc1OCc1ccccc1Cl` was 22 µM.
The value for `CCOc1ccc(-c2csc(C(C#N)CNc3ccc4oc(=O)ccc4c3)n2)cc1` (centres undefined) was 28 µM; that for `O=C1NC(=O)N(c2ccccc2)C(=O)/C1=C\c1cn(Cc2cccc3ccccc23)c2ccccc12` was 12 µM.
Molecule `COc1cc(C)ccc1OCCn1cccc1/C=C1\C(=O)NC(=O)N(c2ccc(C)c(Cl)c2)C1=O` displayed an IC50 of 35 µM.

For the origin of these results see ChEMBL document CHEMBL1152998, “Structure-based virtual screening approach to identify novel classes of PTP1B inhibitors” (Eur J Med Chem, 2009).
